# What was measured:
# [1] = target: T1, PA-mST8Sia VI (mouse ST8Sia VI) (Mus musculus, UniProt Q8K4T1); assay: Sialyltransferase activity of PA-mST8Sia VI toward acceptor substrates; assay type: biochemical; settings: for Relative rate (%) Mouse ST8SiaVI: incorporation with Fetuin taken as 100, substrate 0.5 mg/ml glycolipids, 1 mg/ml glycoproteins, monosaccharides and oligosaccharides
# T1 construct: amino acids 26-398 in the case of mouse ST8Sia VI; signal peptide of mouse immunoglobulin IgM (N); made in house; host or cells: COS-7 cells, transient expression of pcDSA-mST8Sia VI; protein recovered from medium on IgG-Sepharose
# T1 sequence (Q8K4T1 26-398): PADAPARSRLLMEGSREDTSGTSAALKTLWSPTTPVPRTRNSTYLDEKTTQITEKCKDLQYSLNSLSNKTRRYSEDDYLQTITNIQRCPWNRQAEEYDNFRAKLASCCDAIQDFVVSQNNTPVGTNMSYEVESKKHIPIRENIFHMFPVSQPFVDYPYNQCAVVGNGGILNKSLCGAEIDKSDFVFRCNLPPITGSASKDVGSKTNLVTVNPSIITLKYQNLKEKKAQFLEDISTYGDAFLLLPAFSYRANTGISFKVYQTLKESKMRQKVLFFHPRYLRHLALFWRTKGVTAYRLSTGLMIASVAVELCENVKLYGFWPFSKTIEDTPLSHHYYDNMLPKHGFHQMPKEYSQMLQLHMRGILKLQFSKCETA
# Description: (§1) Using each expression vector and lipofectamine (Invitrogen), transient expression was carried out in COS-7 cells (Kojima, N. et al. (1995) FEBS Lett. 360, 1-4). The proteins of the present invention secreted from the cells into which each expression vector had been introduced were named as PA-mST8Sia VI (mouse) and PA-hST8Sia VI (human). PA-mST8Sia VI and PA-hST8Sia VI were adsorbed to IgG-Sepharose (Amersham Pharmacia Biotech), and were then recovered from medium. Sialyltransferase activity was measured as follows according to the method of Lee et al. (Lee, Y.-C. et al. (1999) J. Biol. Chem. 274, 11958-11967). A reaction solution (10 μl) containing 50 mM MES buffer (pH 6.0), 1 mM MgCl2, 1 mM CaCl2, 0.5% Triton CF-54, 100 μM CMP-[^14C]-NeuAc, a glycoconjugate (which was added at 0.5 mg/ml in the case of glycolipids, and at 1 mg/ml in the case of glycoproteins or oligosaccharides), and a PA-mST8Sia VI or PA-hST8Sia VI suspension, was incubated at 37° C. for 3 to 20 hours. Thereafter, in the case of glycolipids, the reaction product was purified with a C-18 column (Sep-Pak Vac 100 mg; Waters) and the purified product was used as a sample, and in the case of oligosaccharides or glycoproteins, the reaction product was directly used as a sample. Thus, the obtained samples were subjected to analysis. In the case of oligosaccharides or glycolipids, the sample was spotted on a silica gel 60 HPTLC plate (Merck), and was then developed with a developing solvent consisting of ethanol:pyridine:n-butanol:water:acetic acid=100:10:10:30:3 (for oligosaccharides), a developing solvent consisting of 1-propanol:ammonia water:water=6:1:2.5 (for oligosaccharides), or a developing solvent consisting of chloroform:methanol: 0.02% CaCl2=55:45:10 (for glycolipids). In the case of glycoproteins, analysis was carried out by SDS-polyacrylamide gel electrophoresis. The obtained radioactivities were visualized with a BAS2000 radio image analyzer (Fuji Film) and then quantified.
# [2] = target: T2, PA-hST8Sia VI (human ST8Sia VI) (Homo sapiens, UniProt P61647, L267F); assay: Sialyltransferase activity of PA-hST8Sia VI toward acceptor substrates; assay type: biochemical; settings: incorporation with Fetuin taken as 100, substrate 0.5 mg/ml glycolipids, 1 mg/ml glycoproteins, monosaccharides and oligosaccharides
# T2 construct: amino acids 68-398 in the case of human ST8Sia VI; signal peptide of mouse immunoglobulin IgM (N); made in house; host or cells: COS-7 cells, transient expression of pcDSA-hST8Sia VI; protein recovered from medium on IgG-Sepharose
# T2 sequence (P61647 68-398 L267F): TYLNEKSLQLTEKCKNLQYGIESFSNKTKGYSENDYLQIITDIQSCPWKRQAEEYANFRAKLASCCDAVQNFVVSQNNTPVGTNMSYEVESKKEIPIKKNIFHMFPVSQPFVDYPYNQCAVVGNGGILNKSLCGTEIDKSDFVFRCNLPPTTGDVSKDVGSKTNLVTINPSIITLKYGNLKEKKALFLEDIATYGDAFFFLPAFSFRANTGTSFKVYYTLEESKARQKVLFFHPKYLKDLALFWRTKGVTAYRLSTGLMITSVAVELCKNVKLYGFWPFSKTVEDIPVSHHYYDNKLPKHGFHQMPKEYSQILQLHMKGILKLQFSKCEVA
# Description: as §1
substance,measurement,setting,value
"NeuAcα2,8NeuAcα2,3Galβ1,4Glcβ1-Cer [GD3]",Relative rate (%) Mouse ST8SiaVI,[1],0%
same,Relative rate (%) Human ST8Sia VI,[2],0%
"NeuAcα2,8Galβ1,3GalNAcβ1,4(NeuAcα2,8NeuAcα2,3)Galβ1,4Glcβ1-Cer [GT1b]",activity of PA-mST8Sia VI on the substrate (in words),[1],showed activity
same,Relative rate (%) Mouse ST8SiaVI,[1],1.1%
same,Relative rate (%) Human ST8Sia VI,[2],2.2%
"NeuAcα2,3Galβ1,3GalNAcβ1,4(NeuAca2,3)Galβ1,4Glcβ1-Cer [GD1a]",activity of PA-mST8Sia VI on the substrate (in words),[1],showed activity
same,Relative rate (%) Mouse ST8SiaVI,[1],6.0%
same,Relative rate (%) Human ST8Sia VI,[2],1.8%

# Reference: patent US20060057696A1, “Sugar chain synthases” (priority 2002, published 2006)
